From US20100304384A1, “METHOD OF IDENTIFYING COMPOUNDS THAT INDUCE OR INHIBIT ENDOPLASMIC RETICULUM STRESS OR OXIDATIVE STRESS” (UNIVERSIDAD AUTONOMA DE MADRID, priority 2007, published 2010) come the findings set out here.

What all share (assay type): cell-based, human
One assay concerns DDIT3 promoter (−1507G). Kind of assay: Luciferase reporter activity in SK-N-MC cells stably transfected with pXP2 DDIT3(−1507G)-Luciferase (G7 cell line). The conditions noted are these: −1507G construct, stable SK-N-MC cells, 15 hours of treatment; ± standard error of the mean. The method, then: (§1) The cell lysate was assayed for the β-galactosidase activity, as an indicator of the transfection efficiency, and luciferase activity, as an indicator of the transcriptional activity of the promoters: • Assay of β-galactosidase activity. 50 μl of cell lysate are incubated in an E.L.I.S.A. plate with 50 μl of enzyme substrate (2 mM MgCl2—Merck—, 100 mM β-mercaptoethanol—Sigma—, 120 mM Na2HPO4, 80 mM NaH2PO4—both from Carlo Erba—and 1.33 mg/ml of ONPG (2-Nitrophenyl-β-D-galactopyranoside)—Sigma—). This reaction generates a colored product the concentration of which is measured as absorbance at 415 nm in an E.L.I.S.A. plate reader (Model 680, from BioRad). • Assay of luciferase activity. 40 μl of cell lysate are measured adding 100 μl of reagent of the enzyme (20 mM Tricin, […], 33.3 mM DTT, 270 μM Coenzyme A —all from Sigma—, 2.67 mM MgSO4, 0.1 mM EDTA—both from Merck—, 470 μM Luciferin potassium salt —Promega—and 530 μM ATP—Boehringer Mannheim—); alternatively, the one of the Luciferase Assay System kit—Promega—was used. The luminescence emission is recorded in a Monolight 2010 illuminometer (Analytical Luminescence Laboratory). […]
(§2) The clones resistant to the antibiotic are isolated by aspiration with an automatic pipette and seeded in an M24 for the expansion thereof. The expression of luciferase is analyzed and the lines having greater luciferase activity are maintained. […]
(In general: A reporter such as luciferase makes a cellular process visible.)

The next assay deals with DDIT3 promoter. Kind of assay: Luciferase reporter activity in SK-N-MC cells transiently transfected with pXP2-DDIT3 constructs. The conditions noted are these: transient transfection, both allelic variants; alteration seen after 6 hours of treatment. How it is done: On the day before the transfection 2×10^5 cells per well are seeded in a 24-well plate (M24, from Falcon). 0.7 μg of DNA per well are transfected mixing the plasmids pXP2-DDIT3 and pSV-β-galactosidase in a 1:1 ratio (0.35 μg of pXP2 and 0.35 μg of β-gal) with Lipofectamine Plus (from Life Technologies), following the manufacturer's indications, in a 1:3 DNA:Lipofectamine ratio and allowing the cells to incubate with the plasmid for 5 hours. Twenty-four hours after the transfection the cells are treated to see the response to the stimulus. […]
as §1, with “50 μl of cell lysate are incubated in an E.L.I.S.A. plate with 50 μl of enzyme substrate (2 mM MgCl2—Merck—, 100 mM β-mercaptoethanol—Sigma—, 120 mM Na2HPO4, 80 mM NaH2PO4—both from Carlo Erba—and 1.33 mg/ml of ONPG (2-Nitrophenyl-β-D-galactopyranoside)—Sigma—).” left out, “used.” for “used. The luminescence emission is recorded in a Monolight 2010 illuminometer (Analytical Luminescence Laboratory).”

Another assay has as its system DDIT3 promoter (−1507C). Kind of assay: Luciferase reporter activity in SK-N-MC cells stably transfected with pXP2 DDIT3(−1507C)-Luciferase (C1 cell line). The following applies: −1507C construct, stable SK-N-MC cells, 15 hours of treatment; ± standard error of the mean. The method, then: as §1, §2

On to Tunicamycin [ERS], for which the “Luciferase activity with respect to the non-treated cells (activation of the DDIT3 promoter)” value with DDIT3 promoter (−1507G) was 3.4 ± 0.3 times; with DDIT3 promoter (−1507C) it was 4.6 ± 0.4 times. Further, in the assay with DDIT3 promoter, the “Transcriptional activity of the DDIT3 promoter after treatment” value is “increases significantly”.
